Source: the NIST ThermoML archive (doi:10.1016/j.jct.2014.07.018)
± gives the expanded uncertainty stated by the source.

Key:
[1] = for molar entropy: 101.33 kPa, Vacuum adiabatic calorimetry; for Triple point temperature / Glass transition temperature: Adiabatic calorimetry
[2] = Molar enthalpy of transition or fusion; conditions: Adiabatic calorimetry

CCCCn1cc[n+](C)c1.[I-] [1-butyl-3-methylimidazolium iodide]
molar entropy [J/K/mol], [1]
Conditions | Crystal | Glass | Liquid
0 K | – | 15.2 ± 3.2 | –
5 K | 0.279 ± 0.018 | 15.7 ± 3.2 | –
10 K | 2.27 ± 0.07 | 18.7 ± 3.2 | –
15 K | 6.48 ± 0.15 | 24 ± 3.2 | –
20 K | 12.19 ± 0.21 | 30.7 ± 3 | –
25 K | 18.74 ± 0.25 | 38.1 ± 3 | –
30 K | 25.76 ± 0.29 | 46 ± 3 | –
35 K | 32.98 ± 0.34 | 54.1 ± 3 | –
40 K | 40.24 ± 0.38 | 62.1 ± 3 | –
45 K | 47.47 ± 0.43 | 70.1 ± 2.9 | –
50 K | 54.62 ± 0.48 | 77.9 ± 2.9 | –
60 K | 68.59 ± 0.56 | 93.1 ± 2.9 | –
70 K | 82.02 ± 0.65 | 107.7 ± 2.7 | –
80 K | 94.91 ± 0.73 | 121.6 ± 2.7 | –
90 K | 107.3 ± 0.8 | 135 ± 2.7 | –
100 K | 119.2 ± 1 | 147.9 ± 2.7 | –
110 K | 130.6 ± 1 | 160.2 ± 2.6 | –
120 K | 141.7 ± 1 | 172 ± 2.6 | –
130 K | 152.3 ± 1.1 | 183.5 ± 2.6 | –
140 K | 162.6 ± 1.1 | 194.6 ± 2.6 | –
150 K | 172.6 ± 1.3 | 205.3 ± 2.6 | –
160 K | 182.3 ± 1.3 | 215.8 ± 2.4 | –
170 K | 191.8 ± 1.3 | 226.1 ± 2.4 | –
180 K | 201.1 ± 1.4 | 236.1 ± 2.4 | –
190 K | 210.2 ± 1.4 | 246 ± 2.4 | –
200 K | 219.2 ± 1.6 | 255.8 ± 2.4 | –
210 K | 228.1 ± 1.6 | – | 266.8 ± 2.5
220 K | 236.8 ± 1.6 | – | 280.1 ± 2.5
230 K | 245.5 ± 1.7 | – | 292.9 ± 2.5
240 K | 254.1 ± 1.7 | – | 305.3 ± 2.5
250 K | 262.7 ± 1.7 | – | 317.3 ± 2.3
260 K | 271.2 ± 1.9 | – | 328.9 ± 2.3
270 K | 279.8 ± 1.9 | – | 340.1 ± 2.3
280 K | 288.5 ± 1.9 | – | 351.1 ± 2.3
290 K | 297.2 ± 2 | – | 361.9 ± 2.3
291.92 K | 298.8 ± 2 | – | 363.9 ± 2.3
298.15 K | – | – | 370.4 ± 2.5
300 K | – | – | 372.3 ± 2.5
310 K | – | – | 382.6 ± 2.5
320 K | – | – | 392.6 ± 2.6
330 K | – | – | 402.4 ± 2.6
340 K | – | – | 412.1 ± 2.6
350 K | – | – | 421.5 ± 2.8
360 K | – | – | 430.9 ± 2.8
370 K | – | – | 440 ± 2.8

Conditions | Glass transition temperature, [1] [°C] | Molar enthalpy of transition or fusion, [2] [kcal/mol] | Triple point temperature, [1] [K]
Crystal | – | 4.539 ± 0.0191 | 291.92 ± 0.04
Glass | -66 ± 1 | – | –

CCC[n+]1ccn(C)c1.[Br-] [1-methyl-3-propylimidazolium bromide]
molar entropy [J/K/mol], [1]
Conditions | Crystal 2 | Glass | Liquid
0 K | – | 15.3 ± 2.9 | –
5 K | 0.097 ± 0.013 | 15.6 ± 2.9 | –
10 K | 0.884 ± 0.031 | 17.7 ± 2.9 | –
15 K | 3.03 ± 0.07 | 21.6 ± 2.9 | –
20 K | 6.53 ± 0.1 | 26.8 ± 2.9 | –
25 K | 11.08 ± 0.14 | 32.9 ± 2.7 | –
30 K | 16.39 ± 0.17 | 39.5 ± 2.7 | –
35 K | 22.19 ± 0.22 | 46.3 ± 2.7 | –
40 K | 28.28 ± 0.25 | 53.3 ± 2.7 | –
45 K | 34.52 ± 0.29 | 60.2 ± 2.7 | –
50 K | 40.8 ± 0.33 | 67.1 ± 2.7 | –
60 K | 53.3 ± 0.41 | 80.6 ± 2.6 | –
70 K | 65.48 ± 0.49 | 93.6 ± 2.6 | –
80 K | 77.24 ± 0.56 | 106.1 ± 2.6 | –
90 K | 88.54 ± 0.66 | 118.1 ± 2.4 | –
100 K | 99.4 ± 0.73 | 129.6 ± 2.4 | –
110 K | 109.8 ± 0.8 | 140.6 ± 2.4 | –
120 K | 119.9 ± 0.8 | 151.2 ± 2.4 | –
130 K | 129.6 ± 1 | 161.4 ± 2.4 | –
140 K | 139 ± 1 | 171.3 ± 2.3 | –
150 K | 148 ± 1 | 180.8 ± 2.3 | –
160 K | 156.9 ± 1.1 | 190.2 ± 2.3 | –
170 K | 165.5 ± 1.1 | 199.3 ± 2.3 | –
180 K | 173.9 ± 1.1 | 208.2 ± 2.3 | –
190 K | 182.2 ± 1.3 | 217 ± 2.3 | –
200 K | 190.2 ± 1.3 | 225.6 ± 2.3 | –
210 K | 198.2 ± 1.3 | 234.3 ± 2.2 | –
220 K | 206.1 ± 1.4 | – | 244.9 ± 2.2
230 K | 213.8 ± 1.4 | – | 256.5 ± 2.2
240 K | 221.5 ± 1.4 | – | 267.7 ± 2.2
250 K | 229.2 ± 1.6 | – | 278.5 ± 2.2
260 K | 236.8 ± 1.6 | – | 289 ± 2.2
270 K | 244.4 ± 1.6 | – | 299.2 ± 2.2
280 K | 252.1 ± 1.6 | – | 309.1 ± 2.2
290 K | 259.9 ± 1.7 | – | 318.8 ± 2.2
298.15 K | 266.3 ± 1.7 | – | 326.6 ± 2.2
300 K | – | – | 328.3 ± 2.2
309.54 K | 275.4 ± 1.7 | – | 337.2 ± 2.2
310 K | – | – | 337.6 ± 2.2
320 K | – | – | 346.7 ± 2.2
330 K | – | – | 355.6 ± 2.3
340 K | – | – | 364.4 ± 2.3
350 K | – | – | 373 ± 2.3
360 K | – | – | 381.5 ± 2.5
370 K | – | – | 389.8 ± 2.5

Conditions | Glass transition temperature, [1] [°C] | Molar enthalpy of transition or fusion, [2] [kcal/mol] | Triple point temperature, [1] [K]
Crystal 2 | – | 4.567 ± 0.0335 | 309.54 ± 0.05
Glass | -60 ± 1 | – | –
